These results are taken from patent US20260224521A1, “BIOMOLECULE FOR TREATMENT OF CORNEAL PATHOLOGIES” (Board of Supervisors of Louisiana State University and …, priority 2019, published 2026).

A short description of data set [1]: Incorporation of DHA into PC and PE after topical DHA to corneas with damaged stromal nerves. The class given is in vivo. The conditions noted are these: 1 h, injured mouse corneas. How it is done:
Proportion of PC and PE containing oleic acid (18:1) in the sn-1 and DHA in the sn-2 position. PE was more enriched in the DHA than PC. […] Corneal lipid profiles were analyzed by mass spectrometry-based lipidomic analysis.

The subject of data set [2] is corneal nerves. Particulars: daily i.p. injections of 1 ng/g body weight for 8 weeks; 2017 (79); cited from earlier work.
The conditions of data set [3]: mouse model of tibia bone fracture (96); cited from earlier work.
A further data set concerns AXL receptors. The conditions noted are these: osteoporosis mouse model (97); cited from earlier work.
Data set [4] relates to mouse cornea. The data set can be described thus: Corneal wound healing 20 h after injury (methylene blue stained wounded area). Particulars: 20 h after injury and topical treatment; compared to vehicle. The class given is in vivo. How it is done:
Studies have shown that PEDF+DHA promotes corneal wound healing in rabbit (20, 21), and in normal and diabetic mice (24, 25) after experimental surgery. We validated the ability of RvD6s (either RvD6 or RvD6si) in stimulating corneal wound healing. The right mouse eyes were injured, and the animals were divided into four groups: vehicle, PEDF+DHA, RvD6, and RvD6si (FIG. 4).
(§1) Mice were anesthetized with a mix of ketamine (200 mg/kg) and xylazine (10 mg/kg) injected intraperitoneally, and one drop of proparacaine hydrochloride solution (0.5%) was applied to the right eye subjected to injury. As previously described (19, 29), the center of the cornea was demarcated with a 2 mm trephine, and the epithelium and the anterior stroma were gently removed under a surgical microscope using a corneal rust ring remover (Algerbrush II; Alger Equipment Co., Lago Vista, TX, USA). One drop of 0.3% of tobramycin ophthalmic solution (Henry Schein, Melville, NY, USA) was applied to the eye to prevent postoperative infection. The same investigator (J.H.) performed all surgeries. Afterward, 10 μl of PEDF (50 ng/ml) plus DHA (50 nM) or DHA-derived lipid mediators were applied topically, as explained in each experimental design.
Mice were euthanized 20 h after injury and treatment, and corneas were stained with 0.5% methylene blue for 20 sec and then washed with PBS for 2 min. Photographs were taken with a dissecting microscope (SMZ 1500; Nikon, Tokyo, Japan) through an attached digital camera (DXM 1200; Nikon). The images corresponding to the wounded area were quantified using Photoshop CC 2014 software (Adobe, San Jose, CA, USA).

The test system of data set [5] is mouse cornea. The data set can be described thus: Corneal sensitivity measurement (Belmonte non-contact aesthesiometer). The class given is in vivo. The conditions noted are these: day 9 after injury and treatment; vs vehicle. As to the method: Corneal sensitivity was evaluated at days 3, 6, 9 and 12 after corneal injury and treatment (FIG. 4). A new methodology to measure the sensation in mouse cornea was introduced using the Belmonte non-contact aesthesiometer. […] It is important to note that this range of normal corneal sensitivity is critical to evaluate corneal sensation since the Belmonte non-contact aesthesiometer working flow rate is from 20 to 200 ml/min. The range of normal corneal sensitivity from […] in the mouse was regarded as successful recovery after injury and treatment, and it was used to normalize the measurements.
as §1
The non-contact corneal aesthesiometer has been described as a more reliable method than the standard Cochet-Bonnet aesthesiometer to determine the corneal sensation threshold (54). Therefore, for corneal sensation measurement, the Belmonte non-contact corneal aesthesiometer (55) was used with some modification. Briefly, one researcher held the mouse and kept the air output needle at a distance of 3 mm from the cornea. Another researcher controlled the air flow rate. The measurements started at an air flow rate of 80 ml per minute and then increased gradually by ten units until the mouse started blinking. When the mouse blinked, the air flow rate was recorded as the final corneal sensitivity index.

The subject of data set [6] is corneal nerves. The data set can be described thus: Corneal nerve analysis (PGP9.5 and SP whole-mount nerve density). The class given is in vivo, mouse.
Excerpt: PEDF+DHA stimulates corneal nerve regeneration in injury animal models (20-25). It was important to confirm the biological activity of RvD6si as a lipid mediator underlying the action of PEDF+DHA. To validate this, mice were injured and treated (as described in FIG. 4). Isolated corneas were stained with PGP 9.5, a pan-neuronal marker, and with SP neuropeptide antibodies. The density of non-injured corneal nerves positive to PGP 9.5 and SP, respectively, was used to normalize the values (FIG. 5). Substance P is a main neuropeptide in mammalian corneas (26-28).
as §1
Twelve days after injury and treatment, mice were euthanized, and the eyes enucleated and fixed with Zamboni's fixative (American Master Tech Scientific, Lodi, CA, USA) for 45 min at room temperature. The corneas were then excised and fixed for an additional 15 min, followed by 3 washes with PBS. To block nonspecific binding, corneas were incubated with 10% normal goat serum plus 0.5% Triton X-100 in PBS for 1 h at room temperature. Afterward, corneas were incubated with the primary antibodies, rabbit monoclonal anti-PGP9.5 (1:500), (ab108986; Abcam, Cambridge, MA, USA), and rat monoclonal anti-substance-P (SP; 1:100) (sc-21715; Santa Cruz Biotechnology, Dallas, TX, USA) for 24 h at room temperature with constant shaking. After being washed with PBS, the corneas were incubated with the corresponding secondary antibodies goat anti-rabbit Alexa-Fluor 488 (1:1000) and goat anti-rat Alexa-Fluor 488 (1:1000) (Thermo Fisher Scientific, Waltham, MA, USA) for 24 h at 4° C. Four radial cuts were performed on each cornea that was flatly mounted on a slide with the endothelium side up and examined with a fluorescent microscope (Deconvolution microscope DP80; Olympus, Tokyo, Japan). The images were merged together to build the entire view of the corneal nerve network. The corneal nerve density was measured using Photoshop CC 2014 (Adobe) as previously described (26, 29).

Data set [7] has as its system trigeminal ganglion (TG) gene expression. Put plainly: Trigeminal ganglion RNA sequencing after corneal injury and treatment. The class given is in vivo, mouse. Particulars: RNA-seq, 12 days after corneal injury and topical treatment; vs vehicle. How it is done:
Because corneal sensory nerves originate in TG neurons, we wanted to validate whether corneal injury could be sensed in the TG and t, in turn, would elicit a gene expression response. Thus, TG were harvested 12 days after injury and treatment with RvD6si or RvD6 or vehicle treatment used as control (FIG. 4) and then RNA-seq analysis was performed. […] The box plots depict two activated genes by RvD6si in this class: C9orf72 and Gpm6a (FIG. 6). We also detected specific genes related to neuropeptides and ion channel receptors in the cornea that are stimulated by the addition of PEDF+DHA (19, 21, 24) (FIG. 6D). The RNA-seq established that RvD6 or RvD6si reduced gene expression of two major neuropeptides, tachykinin precursor 1 (Tac1) that encodes Substance P (SP) and calcitonin-related polypeptide beta (Calcb). It is important to note that these neuropeptides, especially Calcb, are major pain-induced mediators in migraine and other primary headaches (30).
TG corresponding to the injury eye side (n=5) were harvested and kept in RNAlater solution (Thermo Fisher Scientific) until homogenized on ice using a Dounce homogenizer. Total mRNA was extracted using an RNeasy mini kit (Qiagen, Germantown, MD, USA) as described by the manufacturer. Purity and concentration of RNA were determined with a NanoDrop ND-1000 spectrophotometer (Thermo Fisher Scientific), and the samples were stored at −80° C. until used. RNA sequencing was performed using the adapted Smart-seq2 protocol (56). Briefly, one ng of total RNA was reverse transcribed with the Oligo-dT30VN and template-switching oligo (TSO) primers. The total cDNAs were amplified using ISPCR primer, and the library was made using the Nextera XT DNA library preparation kit (Illumina, San Diego, CA, USA). The libraries were pooled using the same molarity and sequenced using the NextSeq 500/550 High Output Kit v2 (75 cycles, Illumina). After demultiplexing, RNA-seq data were aligned to the GENCODE GRCm38 mouse primary genome assembly (Release M22, gencodegenes.org/mouse/) using the RSubread package v1.34.6 for R v3.6.1 (57). The outputted BAM files for sequencing data alignment were counted using featureCounts function (Subread v1.6.5 in Ubuntu LTS 16.4 operating system) (58). Next, the raw count data were subjected to differential gene expression analysis using DESeq2 package for R (59). The adjusted p-values were regarded as the false discover rate (FDR).

For data set [8], the system named is mouse cornea. The conditions noted are these: subconjunctival injection every 48 hours, 14 days; 2009 (77); cited from earlier work.
Data set [9] deals with mouse cornea. The conditions noted are these: topical eye drops, 3× daily for 96 hours; 2005 (76); cited from earlier work.
For another data set, the system named is rabbit cornea. Particulars: cited from earlier work.
For another data set, the system named is injured corneas. The conditions noted are these: NPD1 added to injured corneas (27); cited from earlier work.
The conditions of data set [10]: topical NGF (95); cited from earlier work.
The subject of data set [11] is retinal pigment epithelial (RPE) cells. The conditions noted are these: RPE cells (16); cited from earlier work.

Turning to `CC/C=C\C/C=C\C/C=C\C/C=C\C/C=C\C/C=C\CCC(=O)O` [DHA, docosahexaenoic acid], the “incorporation of the fatty acid in PC and PE molecular species containing 18:1-DHA” value in [1] was “rapid incorporation”.

`CC/C=C\C[C@H](O)[C@H](O)/C=C/C=C/C=C\C=C\[C@@H](O)C/C=C\CCC(=O)OC` [RvD2-methyl ester]: in the data set on corneal nerves [2], the “diabetes-induced corneal nerve lost” value is on record as “Reduced the diabetes-induced comeal nerve”.

For the molecule `CC/C=C\C[C@H](O)/C=C/C=C\C[C@@H](O)/C=C/C=C/C=C\[C@@H](O)CCC(=O)O` [RvD3, Resolvin D3], the pain result in data set [3] was “no effect”.

As to `CC/C=C\C[C@@H](O)/C=C/C=C/C/C=C\C/C=C\C/C=C\CCC(=O)O` [17R-hydroxy DHA], the pain behavior entry in the data set with AXL receptors was “decrease pain behavior”.

For `CC/C=C\C[C@H](O)/C=C/C=C\C/C=C\C/C=C\C=C\[C@@H](O)CCC(=O)O` [RvD6, 4S,17S-dihydroxy-5E,7Z,10Z,13Z,15E,19Z-docosahexaenoic acid, reference compound], the “corneal wound healing (wound closure)” value with mouse cornea [4] is given as “faster”. For the same molecule, in the data set with mouse cornea [5], the corneal sensitivity entry is “higher”. Moreover, the “total corneal nerve density, differences between RvD6si, RvD6, and PEDF+DHA” value in the data set with corneal nerves [6] (12 days after injury and treatment) is listed as “no significant differences”. In addition, in the data set on corneal nerves [6] (12 days after injury and treatment, % of the normal (uninjured) cornea), the “total corneal nerve density (PGP 9.5)” value stood at 59.7±11.2%. Moreover, the “density of SP-positive nerves” value with corneal nerves [6] (12 days after injury, compared to the vehicle-treated group) was “higher”. In data set [7], the “Calcb gene expression in TG” value is given as “reduced” and the “Tac1 gene expression in TG” value was “reduced”.

Take `CC/C=C\C[C@H](O)/C=C/C=C\C=C\C=C\[C@@H](O)[C@@H](O)C/C=C\CCC(=O)O` [RvD1, Resolvin D1]: in the data set on mouse cornea [8], the “mRNA expression levels of TNF-α, IL-1α, IL-1β, VEGF-A, VEGF-C, and VEGFR2” value is “macrophages and reduced mRNA expression”; the “suture-induced or IL-1β-induced hemangiogenesis (HA)” value is “Suppressed suture-induced or IL-1β-induced”. Moreover, in the data set on corneal nerves [2], the “diabetes-induced corneal nerve lost” value is “Reduced the diabetes-induced comeal nerve”. The pain result in data set [3] was “pain attenuation”.

Consider `CC/C=C\C[C@H](O)/C=C/C=C\C/C=C\C=C\[C@@H](O)C/C=C\CCC(=O)O` [RvD5, Resolvin D5], for which the pain entry in data set [3] is recorded as “pain attenuation”.

Regarding `CC/C=C\C[C@H](O)\C=C/C=C/C=C/[C@H](O)C/C=C\C/C=C\CCC(=O)O` [NPD1, neuroprotectin D1], in the data set with mouse cornea [9], the “PMNs in the cornea” value was “Increased”, the “formation of the proinflammatory chemokine KC” value is given as “Decreased” and the rate of re-epithelialization result is on record as “Increased the rate of re-epithelialization”. Besides, the neutrophil infiltration result with rabbit cornea (after 2 and 4 days of treatment, 2013 (41)) is “Decreased neutrophil infiltration after 2 and 4”. In the data set on rabbit cornea (topical eye drops 33 ng/eye, 3× daily for 6 weeks, 2013 (41)), the “subepithelial corneal nerves and tear secretion” value was “Increased subepithelial corneal nerves and tear”. Moreover, the “gene expression and protein levels of NGF, BDNF and Sema7A” value with injured corneas was “increase”.

As to `CC/C=C\C[C@H](O)/C=C\C=C\C/C=C/C=C/C=C/C(O)[C@@H](O)CCC(=O)O` (stereo in doubt) [RvD4, Resolvin D4], the pain result in [3] is “no effect”.

As for `CC/C=C\C[C@H](O)/C=C/C=C\C=C\C=C\[C@@H](O)[C@@H](O)C/C=C\CCC(=O)OC` [RvD1-methyl ester], the “diabetes-induced corneal nerve lost” value in the data set on corneal nerves [2] is “Reduced the diabetes-induced comeal nerve”.

Regarding NGF: nerve growth factor, the “side effect of topical treatment” value in [10] is “ocular pain”.

B1: PEDF: pigment epithelium-derived factor, a broad-acting neurotrophic and neuroprotective factor (protein, UniProt P36955 20-418, looked up)
Pigment epithelium-derived …: QNPASPPEEGSPDPDSTGALVEEEDPFFKVPVNKLAAAVSNFGYDLYRVRSSTSPTTNVLLSPLSVATALSALSLGAEQRTESIIHRALYYDLISSPDIHGTYKELLDTVTAPQKNLKSASRIVFEKKLRIKSSFVAPLEKSYGTRPRVLTGNPRLDLQEINNWVQAQMKGKLARSTKEIPDEISILLLGVAHFKGQWVTKFDSRKTSLEDFYLDEERTVRVPMMSDPKAVLRYGLDSDLSCKIAQLPLTGSMSIIFFLPLKVTQNLTLIEESLTSEFIHDIDRELKTVQAVLTVPKLKLSYEGEVTKSLQEMKLQSLFDSPDFSKITGKPIKLTQVEHRAGFEWNEDGAGTTPSPGLQPAHLTFPLDYHLNQPFIFVLRDTDTGALLFIGKILDPRGP
Turning to B1, in the data set on rabbit cornea (treatment with PEDF or DHA alone (19)), the cornea nerve regeneration entry is reported as “no increase”. Besides, in data set [11], the “potency in stimulating NPD1 synthesis relative to NGF” value is 10 times.
